# Read-outs that look alike come from different tables or passages of the source.
# Tests used:
# MPNST cell line = settings: published data; cited from earlier work
# LIMK1 = LIMK1 (Homo sapiens (Human), UniProt P53667); experiment: Lanthascreen Eu binding assay (TR-FRET), inhibition of LIMK1; settings: Lanthascreen Eu binding assay
# LIMK2 = LIMK2 (Homo sapiens (Human), UniProt P53671); experiment: Lanthascreen Eu binding assay (TR-FRET), inhibition of LIMK2; settings: Lanthascreen Eu binding assay
# ROCK1 = ROCK1 (Homo sapiens (Human), UniProt Q13464); experiment: Z'Lyte assay, ROCK1 inhibition at a single concentration; format: biochemical; settings: for inhibition at 1 µM: read-out: % inhibition (ROCK1) 1 uM, 1 uM
# ROCK2 = ROCK2 (Homo sapiens (Human), UniProt O75116); experiment: Z'Lyte assay, ROCK2 inhibition at a single concentration; format: biochemical; settings: for inhibition at 1 µM: read-out: % inhibition (ROCK2) 1 uM, 1 uM
# [1] = test system: cofilin phosphorylation, HeLa cells; experiment: Cofilin phosphorylation by Western Blot (anti-phospho-Ser3-cofilin) in HeLa cells; format: cell-based; settings: for inhibition at 25 µM: Homo sapiens; for inhibition at 25 µM / % inhibition Cofilin phosphorylation HeLa cells treated 2 h with 25 uM of inhibitor: 2 h
# [2] = test system: SOD1-G93A transgenic mice; experiment: In vivo assay on a mouse model of ALS; settings: 10 mg/Kg intraperitoneal, 2 times a week from week 8
# [3] = test system: cofilin phosphorylation, MPNST88-14 cells; experiment: Cofilin phosphorylation by Western Blot in MPNST88-14 cells; format: cell-based; settings: for inhibition at 25 µM: read-out: % inhibition Cofilin phosphorylation MPNST88-14 cells treated 2 h with 25 uM of inhibitor, MPNST88-14 cells, 25 uM
# [4] = test system: cofilin phosphorylation, MPNST90-8 cells; experiment: Cofilin phosphorylation by Western Blot in MPNST90-8 cells; format: cell-based; settings: for inhibition at 25 µM: read-out: % inhibition Cofilin phosphorylation MPNST90-8 cells treated 2 h with 25 uM of inhibitor, MPNST90-8 cells, 25 uM
# LIMK1 and LIMK2 = experiment: Lanthascreen Eu binding assay, Ki without LIMK isoform; settings: LIMK isoform not stated
# U2OS cells [5] = experiment: Wound-healing migration assay; format: cell-based; settings: 2.5 μM, 24 h
# U2OS cells [6] = experiment: Microtubule dynamics by visualizing mitotic spindles; format: cell-based; settings: 2.5 μM, 24 hours
# HeLa cells = experiment: Cytotoxicity, CellTiter-Glo Luminescent Cell Viability assay, HeLa; format: cell-based; settings: 48 hours, read-out: EC50 (inhibitor concentration corresponding to half of live cells)
# [7] = HeLa, read-out: % inhibition of cofilin phosphorylation in HeLa cells (treatment 2 h, at 25 μM), Table 2, normalized to the control condition DMSO
# [8] = read-out: % inhibition Cofilin phosphorylation HeLa cells treated 2 h with 25 uM of inhibitor, HeLa cells, 25 uM
# [9] = Table 2, normalized to the control condition DMSO
# ROCK1, sequence (Q13464 whole entry): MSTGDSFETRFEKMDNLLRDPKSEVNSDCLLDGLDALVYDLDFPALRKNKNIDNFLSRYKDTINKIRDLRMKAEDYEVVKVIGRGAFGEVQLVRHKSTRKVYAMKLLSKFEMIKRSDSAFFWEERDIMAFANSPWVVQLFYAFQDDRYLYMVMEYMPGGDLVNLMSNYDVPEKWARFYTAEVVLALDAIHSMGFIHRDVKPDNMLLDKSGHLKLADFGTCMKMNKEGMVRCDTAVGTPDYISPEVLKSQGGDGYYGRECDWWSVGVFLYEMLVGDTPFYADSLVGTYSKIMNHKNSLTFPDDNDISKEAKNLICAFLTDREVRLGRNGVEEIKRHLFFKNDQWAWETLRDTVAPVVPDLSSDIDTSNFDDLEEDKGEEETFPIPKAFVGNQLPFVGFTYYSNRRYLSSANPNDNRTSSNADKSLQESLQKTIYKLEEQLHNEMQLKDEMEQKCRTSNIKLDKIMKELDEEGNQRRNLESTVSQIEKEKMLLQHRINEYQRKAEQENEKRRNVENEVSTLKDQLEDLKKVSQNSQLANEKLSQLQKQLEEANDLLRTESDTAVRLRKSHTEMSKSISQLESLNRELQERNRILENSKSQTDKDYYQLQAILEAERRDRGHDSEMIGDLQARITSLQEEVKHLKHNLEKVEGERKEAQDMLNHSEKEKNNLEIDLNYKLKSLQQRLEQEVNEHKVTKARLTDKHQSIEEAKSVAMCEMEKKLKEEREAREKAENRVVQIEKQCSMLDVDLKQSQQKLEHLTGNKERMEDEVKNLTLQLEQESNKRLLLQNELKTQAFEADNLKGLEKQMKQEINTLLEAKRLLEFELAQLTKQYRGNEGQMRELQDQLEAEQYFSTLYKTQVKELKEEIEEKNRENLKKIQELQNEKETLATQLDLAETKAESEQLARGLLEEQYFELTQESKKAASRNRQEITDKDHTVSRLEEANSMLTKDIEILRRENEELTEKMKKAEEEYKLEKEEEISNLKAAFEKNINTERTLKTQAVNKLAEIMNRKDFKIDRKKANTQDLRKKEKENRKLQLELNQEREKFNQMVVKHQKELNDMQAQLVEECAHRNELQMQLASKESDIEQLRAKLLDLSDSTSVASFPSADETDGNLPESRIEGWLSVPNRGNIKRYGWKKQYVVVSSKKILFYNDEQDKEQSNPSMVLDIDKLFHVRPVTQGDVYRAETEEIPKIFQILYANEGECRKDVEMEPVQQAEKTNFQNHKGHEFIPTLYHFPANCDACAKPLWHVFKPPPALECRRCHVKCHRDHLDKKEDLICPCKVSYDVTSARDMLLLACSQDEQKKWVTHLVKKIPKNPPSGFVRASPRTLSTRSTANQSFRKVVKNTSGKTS
# ROCK2, sequence (O75116 whole entry): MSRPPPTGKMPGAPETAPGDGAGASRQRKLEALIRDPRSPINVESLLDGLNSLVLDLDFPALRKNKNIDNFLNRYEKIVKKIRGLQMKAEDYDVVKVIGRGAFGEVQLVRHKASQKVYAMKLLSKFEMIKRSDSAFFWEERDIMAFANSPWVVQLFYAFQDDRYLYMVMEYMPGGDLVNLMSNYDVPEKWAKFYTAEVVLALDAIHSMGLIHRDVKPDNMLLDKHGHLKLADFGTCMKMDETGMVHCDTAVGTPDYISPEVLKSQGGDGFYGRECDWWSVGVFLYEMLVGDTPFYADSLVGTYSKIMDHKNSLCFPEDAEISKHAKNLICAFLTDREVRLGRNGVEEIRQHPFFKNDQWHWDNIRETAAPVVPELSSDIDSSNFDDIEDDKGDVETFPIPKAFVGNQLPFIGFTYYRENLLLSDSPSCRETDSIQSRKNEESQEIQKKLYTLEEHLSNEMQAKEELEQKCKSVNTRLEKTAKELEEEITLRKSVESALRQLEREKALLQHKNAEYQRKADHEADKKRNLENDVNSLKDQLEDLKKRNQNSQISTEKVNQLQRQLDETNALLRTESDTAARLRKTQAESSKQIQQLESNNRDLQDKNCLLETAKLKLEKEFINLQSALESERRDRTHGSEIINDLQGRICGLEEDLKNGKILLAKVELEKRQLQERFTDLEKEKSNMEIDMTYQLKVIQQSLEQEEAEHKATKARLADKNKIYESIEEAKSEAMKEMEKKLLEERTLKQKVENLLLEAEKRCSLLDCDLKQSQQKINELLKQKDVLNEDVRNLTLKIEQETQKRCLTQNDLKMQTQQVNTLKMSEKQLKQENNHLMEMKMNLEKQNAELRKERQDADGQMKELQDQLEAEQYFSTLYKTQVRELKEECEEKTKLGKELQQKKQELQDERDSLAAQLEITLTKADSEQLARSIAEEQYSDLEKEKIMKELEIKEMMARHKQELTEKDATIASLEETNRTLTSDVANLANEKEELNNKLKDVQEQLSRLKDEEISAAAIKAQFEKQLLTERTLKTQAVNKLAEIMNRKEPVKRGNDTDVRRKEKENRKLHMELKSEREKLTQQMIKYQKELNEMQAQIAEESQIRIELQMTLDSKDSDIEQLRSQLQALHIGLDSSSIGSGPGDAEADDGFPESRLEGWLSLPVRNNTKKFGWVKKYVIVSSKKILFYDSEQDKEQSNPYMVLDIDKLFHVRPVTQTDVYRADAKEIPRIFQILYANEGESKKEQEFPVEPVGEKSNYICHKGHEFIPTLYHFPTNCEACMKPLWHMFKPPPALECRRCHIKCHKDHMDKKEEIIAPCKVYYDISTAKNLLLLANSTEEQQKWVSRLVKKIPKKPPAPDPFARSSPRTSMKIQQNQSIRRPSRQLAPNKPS
# LIMK2, sequence (P53671 whole entry): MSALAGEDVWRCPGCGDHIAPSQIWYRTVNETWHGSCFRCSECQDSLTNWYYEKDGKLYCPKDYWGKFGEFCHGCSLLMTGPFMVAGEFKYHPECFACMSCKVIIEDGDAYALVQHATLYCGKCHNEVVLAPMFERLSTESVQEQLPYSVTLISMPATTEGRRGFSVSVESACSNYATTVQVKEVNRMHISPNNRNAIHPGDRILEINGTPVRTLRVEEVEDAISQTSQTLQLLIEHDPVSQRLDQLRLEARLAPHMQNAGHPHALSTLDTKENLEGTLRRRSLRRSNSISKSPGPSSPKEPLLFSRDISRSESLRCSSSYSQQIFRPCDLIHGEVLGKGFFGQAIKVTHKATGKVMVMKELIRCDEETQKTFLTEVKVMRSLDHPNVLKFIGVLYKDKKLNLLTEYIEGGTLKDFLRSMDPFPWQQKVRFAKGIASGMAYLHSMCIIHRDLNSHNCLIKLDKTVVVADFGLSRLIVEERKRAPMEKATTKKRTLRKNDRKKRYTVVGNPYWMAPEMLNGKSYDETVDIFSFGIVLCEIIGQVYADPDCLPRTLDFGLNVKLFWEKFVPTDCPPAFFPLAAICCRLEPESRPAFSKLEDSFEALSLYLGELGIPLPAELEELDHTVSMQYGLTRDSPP
# LIMK1, sequence (P53667 whole entry): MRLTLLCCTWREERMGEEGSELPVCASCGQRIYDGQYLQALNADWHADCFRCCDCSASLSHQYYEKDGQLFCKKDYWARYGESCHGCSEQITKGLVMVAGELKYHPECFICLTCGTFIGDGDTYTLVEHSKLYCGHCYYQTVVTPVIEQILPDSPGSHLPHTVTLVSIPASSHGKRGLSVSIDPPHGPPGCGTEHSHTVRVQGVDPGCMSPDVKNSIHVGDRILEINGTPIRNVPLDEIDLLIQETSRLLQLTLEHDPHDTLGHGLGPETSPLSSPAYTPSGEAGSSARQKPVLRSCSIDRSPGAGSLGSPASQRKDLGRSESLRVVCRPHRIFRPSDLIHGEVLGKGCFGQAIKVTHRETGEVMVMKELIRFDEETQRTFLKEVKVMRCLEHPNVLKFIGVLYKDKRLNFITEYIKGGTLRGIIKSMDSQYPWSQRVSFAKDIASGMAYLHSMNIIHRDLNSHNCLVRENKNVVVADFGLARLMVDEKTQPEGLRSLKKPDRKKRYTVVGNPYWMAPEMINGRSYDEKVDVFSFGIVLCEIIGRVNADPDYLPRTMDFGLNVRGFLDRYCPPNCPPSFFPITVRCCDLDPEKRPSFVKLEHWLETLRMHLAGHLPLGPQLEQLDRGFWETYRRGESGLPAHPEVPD
Ki (LIMK1) [µM],Ki (LIMK2) [µM],inhibition at 1 µM (ROCK1) [%],inhibition at 1 µM (ROCK2) [%],SMILES,"inhibition at 25 µM [1, 7] [%]","inhibition at 25 µM [1, 8] [%]",inhibition at 25 µM [3] [%],inhibition at 25 µM [4] [%],other results
–,–,–,–,Cc1cc(C(=O)Nc2cccc(C(=O)Nc3cccc(C(F)(F)F)c3)c2)on1 [Compound T56-LIMKi],–,–,–,–,EC50 (MPNST cell line): ~20 µM
0.029,0.0285,10,-2,"O=C(Nc1cccc(Oc2ccccc2)c1)N1CC=C(c2ncnc3[nH]c4c(c23)CCC4)CC1 [Compound 125, N-(3-Phenoxyphenyl)-4-(5,6,7,8-tetrahydrocyclopenta[4,5]pyrrolo[2,3-d]pyrimidin-4-yl)-3,6-dihydropyridine-1(2H)-carboxamide]",81.4,81.4,80.8,76.1,–
–,–,–,–,"Cc1c[nH]c2ncnc(N3CCC(CN)(C(=O)Nc4cccc(OC(=O)N(C)C)c4)CC3)c12 [LX7101, reference compound]",85.1,–,–,–,Ki (LIMK1 and LIMK2): 0.0039 µM
0.0194,0.0144,44,24,"Cc1c[nH]c2ncnc(C3=CCN(C(=O)Nc4cccc(Oc5ccccc5)c4)CC3)c12 [Compound 15, 4-(5-Methyl-7H-pyrrolo[2,3-d]pyrimidin-4-yl)-N-(3-phenoxy-phenyl)-3,6-dihydropyridine-1(2H)-carboxamide]",92.1,92.1,78.6,83.2,inhibition of U2OS cell migration upon scratch (U2OS cells [5]): particularly efficient; effects on microtubule dynamics (mitotic spindles) (U2OS cells [6]): strong effects on microtubule dynamics
–,–,–,–,"Cc1c[nH]c2ncnc(C3=CC(C)N(C(=O)Nc4cccc(Oc5ccccc5)c4)C(C)C3)c12 (centres unmarked) [Compound 60, 2,6-Dimethyl-4-(5-methyl-7H-pyrrolo[2,3-d]pyrimidin-4-yl)-N-(3-phenoxyphenyl)-3,6-dihydro pyridine-1(2H)-carboxamide]",–,–,–,–,"% inhibition (ROCK1) 1 uM (ROCK1): 11%; % inhibition (ROCK2) 1 uM (ROCK2): 7%; % inhibition Cofilin phosphorylation HeLa cells treated 2 h with 25 uM of inhibitor ([1]; HeLa cells, 25 uM): 94.2%; % inhibition of cofilin phosphorylation in HeLa cells (treatment 2 h, at 25 μM) [1, 9]: 94.2%; % inhibition Cofilin phosphorylation MPNST88-14 cells treated 2 h with 25 uM of inhibitor ([3]; MPNST88-14 cells, 25 uM): 74.5%; % inhibition Cofilin phosphorylation MPNST90-8 cells treated 2 h with 25 uM of inhibitor [4]: 81.1%"
0.0466,0.103,59,36,"Cc1c[nH]c2ncnc(C3=CC(C)N(C(=O)Nc4cccc(F)c4)C(C)C3)c12 (centres unmarked) [Compound 57, N-(3-Fluorophenyl)-2,6-dimethyl-4-(5-methyl-7H-pyrrolo[2,3-d]pyrimidin-4-yl)-3,6-dihydropyridine-1(2H)-carboxamide]",90.3,90.3,81,93.3,–
–,–,–,–,CC(C)C(=O)Nc1ncc(-c2cc(C(F)F)nn2-c2c(Cl)cccc2Cl)s1 [LIMKi3],–,–,–,–,EC50 (HeLa cells): 9 µM
0.172,0.319,7,-1,"O=C(Nc1cccc(F)c1)N1CC=C(c2ncnc3[nH]c4c(c23)COCC4)CC1 [Compound 157, N-(3-Fluorophenyl)-4-(5,7,8,9-tetrahydropyrano[3′,4′:4,5]pyrrolo[2,3-d]pyrimidin-4-yl)-3,6-dihydropyridine-1(2H)-carboxamide]",79.5,79.5,56.5,–,–

SMILES,Ki (LIMK1) [µM],Ki (LIMK2) [µM],inhibition at 1 µM (ROCK1) [%],inhibition at 1 µM (ROCK2) [%],"inhibition at 25 µM [1, 7] [%]","inhibition at 25 µM [1, 8] [%]",inhibition at 25 µM [3] [%],inhibition at 25 µM [4] [%],other results
"O=C(Nc1cccc(F)c1)N1CC=C(c2ncnc3[nH]c4c(c23)CCC4)CC1 [Compound 110, N-(3-Fluorophenyl)-4-(5,6,7,8-tetrahydrocyclopenta[4,5]pyrrolo[2,3-d]pyrimidin-4-yl)-3,6-dihydropyridine-1(2H)-carboxamide]",0.005,0.041,3,9,79,79,–,–,later development of the disease phenotype and endpoint of the disease (survival) [2]: do not observed improvement; loss of weight [2]: significant effect on delaying; onset of motor symptoms (early Neuroscore stages and first time decay in the rotarod test) [2]: significant effect on delaying
"CN(C)C(=O)Oc1cccc(NC(=O)N2CC=C(c3ncnc4[nH]c5c(c34)CCC5)CC2)c1 [Compound 122, 3-(4-(5,6,7,8-Tetrahydrocyclopenta[4,5]pyrrolo[2,3-d]pyrimidin-4-yl)-1,2,3,6-tetrahydropyridine-1-carboxamido)phenyl dimethyl carbamate]",0.00711,0.00402,–,–,–,–,–,–,"% inhibition (ROCK1) 1 uM (ROCK1): 4%; % inhibition (ROCK2) 1 uM (ROCK2): 14%; % inhibition Cofilin phosphorylation HeLa cells treated 2 h with 25 uM of inhibitor ([1]; HeLa cells, 25 uM): 81.3%; % inhibition of cofilin phosphorylation in HeLa cells (treatment 2 h, at 25 μM) [1, 9]: 81.3%; % inhibition Cofilin phosphorylation MPNST90-8 cells treated 2 h with 25 uM of inhibitor [4]: 65.6%"

# Reference: patent US20230312576A1, “4-(7H-PYRROLO[2,3-D]PYRIMIDIN-4-YL)-3,6-DIHYDROPYRIDINE-1-(2H)-CARBOXAMIDE DERIVATIVES AS LIMK AND/OR ROCK KINASES INHIBITORS FOR USE IN THE TREATMENT OF CANCER” (CENTRE NATIONAL DE LA RECHERCHE SCIENTIFIQUE, priority 2020, published 2023)
